Like-named read-outs stand apart in the source and are kept apart here.
Assays:
[1] = test system: V79 cells; assay: Clonogenicity, killing of V79 cells using photodynamic therapy (Table 3); type: cell-based, Chinese hamster
Description: Using the cell culture methods described above, V79 cells Chinese hamster lung fibroblasts were treated with either 0.5 or 1.0 μM of the phthalocyanines listed in Table 3. About 18 hours thereafter, the cells were irradiated with increasing doses of 675 nm broad band red light from a 500 W tungsten-halogen lamp fitted with a 600 nm high pass filter, to determine the light dosage that would kill 90% of the phthalocyanine treated cells. Where 90% of the cells were not killed, the maximum percent of cells killed were determined, (expressed as % survival) and the related light dosage recorded.

[2] = test system: L5178Y cells; assay: Induction of apoptosis (DNA fragmentation) in L5178Y-R cells (Table 6); type: cell-based, mouse; conditions: for induction of apoptosis: 1 μM at a fluence of 30 kJ/m^2
Description: Mouse lymphoma L5178y-R (hereinafter also referred to as "LY-R") cells were grown in suspension culture as described in Ramakrishnan N., Oleinick, N. L. Clay, M. E., Horng, M. F., Antunez, A. R., and Evans H. H., DNA lesions and DNA degradation in mouse lymphoma L5178Y cells after photodynamic treatment sensitized by chloroaluminum phthalocyanine. Photochem. Photobiol. 50, 373-378, 1989 and Agarwal, M. L., Clay, M. E., Harvey, E. J., Evans, H. H., Antunez, A. R., and Oleinick, N. L. Photodynamic therapy induces rapid cell death by apoptosis in L5178Y mouse lymphoma cells. Cancer Res., 51, 5993-5996, 1991.
The cells were used while in exponential growth. Stock solutions of either 0.5 or 1 mM of PcIV, PcXII, PcX, PcXVIII were prepared in dimethylformamide unless otherwise indicated and added to the 10 mL medium at a rate of 1 μL per mL. After allowing 18 hours for uptake of the phthalocyanine into the cells, the flasks containing the cultures were placed on a glass exposure tray above a 500-W tungsten-halogen lamp. The exposure tray was fitted with a 600-nm high-pass filter. Flasks were exposed to various fluences of red light (up to 30 kJ/m^2) at a fluence rate of approximately 74 W/m^2). After irradiation, the cells were collected by centrifugation.
For measurement of clonogenic cell survival, aliquots were plated in medium containing soft agar as described in Ramakrishnan N., Oleinick, N. L. Clay, M. E., Horng, M. F., Antunez, A. R., and Evans H. H., DNA lesions and DNA degradation in mouse lymphoma L5178Y cells after photodynamic treatment sensitized by chloroaluminum phthalocyanine. Photochem. Photobiol. 50, 373-378, 1989. The aliquots were plated in sufficient numbers to produce 50-200 colonies. The dishes were kept in an incubator at 37° C. in an atmosphere of 5% CO2 and 95% air for 10-14 days to allow viable cells to form colonies. Colonies were counted by eye. Controls treated with the phthalocyanine alone had plating efficiencies of ~90%. The plating efficiencies of the treated cells are normalized to the plating efficiencies of control cells in each experiment. For measurement of the induction of apoptosis, DNA was isolated from the treated and control cells 2 hours after photodynamic therapy, subjected to electrophoresis on 1.5% agarose, stained with ethidium bromide, and visualized by UV transillumination, as described in Agarwal et. al. The results are shown in Tables 4, 5 and 6 and in FIG. 3.
Cells were treated with various concentrations of the compounds listed in the table and various light fluences. DNA gels were prepared and examined for the characteristic "ladder" pattern of DNA fragments. For each Pc, the minimum total PDT dose tested (calculated as the product of the minimum phthalocyanine concentration and the minimum fluence) which produced visible DNA fragments is recorded. […] PcXVIII was also added at 0.5 and 1.0 μM.

[3] = test system: V79 cells; assay: Uptake of additional phthalocyanines into V79 cells (Table 2); conditions: for Uptake into V79 cells: 18 hours; for Uptake into V79 cells, composite value: average of all data; for Uptake (from Table 2): repeated in Table 3; for dependence of uptake on phthalocyanine concentration: V79 cells, 1-4 μM; for Uptake into V79 cells, composite value (asterisk): asterisk: listed value is for 1 μM, average would be higher
Description: V79 cells Chinese hamster lung fibroblasts were cultured using the cell culture methods described above. […] When the filters were dry, the phthalocyanines were extracted into ethanol and the absorption determined at the peak wavelength, usually 668 nm.

[4] = test system: RIF-1 tumors; assay: PDT of RIF-1 implanted tumors (Table 7); type: in vivo, C3H/HeN mice; conditions: 5 mg/kg in phosphate buffered saline; 675 nm, 135 J/cm^2
Description: The relative effectiveness at reducing tumor volume of selected phthalocyanine compounds at a given dosage was compared in vivo. RIF-1, i.e., radiation-induced fibrosarcoma, tumors were implanted into the backs of C3H/HeN mice. One tumor was implanted per mouse. Each of the phthalocyanine compounds listed in Table 7 was sonicated and vortexed in corn oil to produce a suspension. When the tumors reached […] in diameter and 2-3 mm in thickness, each mouse received 1 mg/kg in 0.1 ml of the corn oil, of the phthalocyanine suspension. For comparison, select mice received a conventional photosensitizer; either 5 mg/kg of chloroaluminum phthalocyanine tetrasulfonate, herein also referred to as "AlPcTS" in phosphate buffered saline or 5 mg/kg of Photofrin®-II in 5% dextrose. Twenty-four hours after the photosensitizers were administered, the tumors were irradiated with visible radiation delivered by an argon-pumped dye laser. The mice that received a phthalocyanine photosensitizer received light having a wavelength of 675 nm and the mice that received the Photofrin® II photosensitizer received light having a wavelength of 630 nm. Each tumor received 135 J/cm^2 of radiation. Tumor size was measured every day using calipers. The initial tumor volume was 50±10 mm^3. Tumor volume was calculated according to the hemiellipsoid model by the formula: [formula] Where l is length Where W is width

[5] = Cricetulus griseus, V79, 1 μM, at 10 kJ/m^2, read-out: Maximum Effect (% survival)
[6] = Cricetulus griseus, V79, 0.5 μM, at 10 kJ/m^2, read-out: Maximum Effect (% survival)

| Compound | Uptake into V79 cells ([3]; 1 μM) | Uptake into V79 cells ([3]; 4 μM) | Uptake into V79 cells, composite value [3] | Uptake (from Table 2) [3] | other results |
| --- | --- | --- | --- | --- | --- |
| C[Si](C)(CCCCNC(=S)N[C@@H]1O[C@H](CO)[C@@H](O)[C@H](O)[C@H]1O)O[Si]1(O[Si](C)(C)CCCCNC(=S)N[C@@H]2O[C@H](CO)[C@@H](O)[C@H](O)[C@H]2O)n2c3c4ccccc4c2N=C2N=C(N=c4c5ccccc5c(n41)=NC1=NC(=N3)c3ccccc31)c1ccccc12 [Compound XI, SiPc[OSi(CH3)2 (CH2)4 NHCSNHC6 H11l O5 ]2] | 0.1 n Moles/10^6 cells | 0.3 ± 0.1 n Moles/10^6 cells | 0.1 n Moles/10^6 cells/μM | 0.1 n Moles/10^6 cells/μM | Cell survival at highest light dose at 1 µM ([1]; Cricetulus griseus, V79, 1 μM, at 20 kJ/m^2, read-out: Maximum Effect (% survival)): 100%; induction of apoptosis [2]: did not induce apoptosis |
| CC(=O)OCCC[Si](C)(C)O[Si]1(O)n2c3c4ccccc4c2N=C2N=C(N=c4c5ccccc5c(n41)=NC1=NC(=N3)c3ccccc31)c1ccccc12 (stereo not shown) [Compound XIII, HOSiPcOSi(CH3)2 (CH2)3 OCOCH3] |  | 1.7 ± 0.3 n Moles/10^6 cells | 0.4 n Moles/10^6 cells/μM | 0.4 n Moles/10^6 cells/μM | Cell survival at highest light dose at 1 µM ([1]; Cricetulus griseus, V79, 1 μM, at 15 kJ/m^2, read-out: Maximum Effect (% survival)): 88% |
| C[Si](C)(CCCN1CCOCC1)O[Si]1(O)n2c3c4ccccc4c2N=C2N=C(N=c4c5ccccc5c(n41)=NC1=NC(=N3)c3ccccc31)c1ccccc12 (stereo not shown) [Compound XIX, HOSiPcOSi(CH3)2 (CH2)3 NC4 H8 O] | 0.3 ± 0.1 n Moles/10^6 cells | 2.4 ± 0.5 n Moles/10^6 cells |  | 1.3 n Moles/10^6 cells/μM | Cell survival at highest light dose at 1 µM [1, 5]: 81%; photosensitizing activity, killing V79 cells (in words) ([1]; discussion of Table 3): less active as a photosensitizer; uptake by V79 cells (in words) [3]: poor uptake; dependence of uptake on phthalocyanine concentration [3]: not linearly dependent upon the phthalocyanine concentration; Uptake into V79 cells, composite value (asterisk) [3]: 0.3 n Moles/10^6 cells/μM |
| CCN(CC)c1ccc2c(c1)Oc1cc(N(CC)CC)ccc1C21c2ccccc2C(=O)N1CCCC[Si](C)(C)O[Si]1(O[Si](C)(C)C(C)(C)C)n2c3c4ccccc4c2N=C2N=C(N=c4c5ccccc5c(n41)=NC1=NC(=N3)c3ccccc31)c1ccccc12 (stereo not shown) [Compound XV, (CH3)3 C(CH3)2 SiOSiPcOSi(CH3)2 (CH2)4 NCOC27 H30 N2 O] | 0.01 ± 0.01 n Moles/10^6 cells | 0.14 ± 0.12 n Moles/10^6 cells | < 0.05 n Moles/10^6 cells/μM | 0.05 n Moles/10^6 cells/μM | Cell survival at highest light dose at 4 µM ([1]; Cricetulus griseus, V79, 4 μM, at 20 kJ/m^2, read-out: Maximum Effect (% survival)): 81%; induction of apoptosis [2]: did not induce apoptosis |
| C[Si](C)(CCCO)O[Si]1(O)n2c3c4ccccc4c2N=C2N=C(N=c4c5ccccc5c(n41)=NC1=NC(=N3)c3ccccc31)c1ccccc12 (stereo not shown) [Compound XVII, HOSiPCOSi(CH3)2 (CH2)3 OH] |  | 1.7 ± 0.2 n Moles/10^6 cells | 0.4 n Moles/10^6 cells/μM | 0.4 n Moles/10^6 cells/μM | Cell survival at highest light dose at 1 µM [1, 5]: 19% |
| CN(C)CCCCCCCC[Si](C)(C)O[Si]1(O)n2c3c4ccccc4c2N=C2N=C(N=c4c5ccccc5c(n41)=NC1=NC(=N3)c3ccccc31)c1ccccc12 (stereo not shown) [Compound XXII, HOSiPcOSi(CH3)2 (CH2)8 N(CH3)2] |  |  |  |  | LD 90 ([1]; 0.5 μM, 18 h, light dose killing 90% of cells): 10 kJ/m^2; Minimum Demonstrated Condition to induce apoptosis: C × F ([2]; 0.5 μM): 5.0 μm × kJ/m^2; Minimum Demonstrated Condition to induce apoptosis: Fluence ([2]; 0.5 μM): 10.0 kJ/m^2 |
| C[Si](C)(CCCN1CCSCC1)O[Si]1(O)n2c3c4ccccc4c2N=C2N=C(N=c4c5ccccc5c(n41)=NC1=NC(=N3)c3ccccc31)c1ccccc12 (stereo not shown) [Compound XXIV, HOSiPCOSi(CH3)2 (CH2)3 NC4 H8 S] | 0.003 ± 0.001 n Moles/10^6 cells | 1.3 ± 0.1 n Moles/10^6 cells |  | < 0.05 n Moles/10^6 cells/μM | Cell survival at highest light dose at 0.5 µM [1, 6]: 100%; dependence of uptake on phthalocyanine concentration [3]: not linearly dependent upon the phthalocyanine concentration; Uptake into V79 cells, composite value (asterisk) [3]: < 0.05 n Moles/10^6 cells/μM |
| CCCCN(CCCC)CCC[Si](C)(C)O[Si]1(O)n2c3c4ccccc4c2N=C2N=C(N=c4c5ccccc5c(n41)=NC1=NC(=N3)c3ccccc31)c1ccccc12 (stereo not shown) [Compound XXV, HOSiPcOSi(CH3)2 (CH2)3 N(CH2)3 CH3)2] | 0.02 ± 0.02 n Moles/10^6 cells | 1.5 ± 0.3 n Moles/10^6 cells |  | < 0.05 n Moles/10^6 cells/μM | Cell survival at highest light dose at 0.5 µM ([1]; Cricetulus griseus, V79, 0.5 μM, at 8 kJ/m^2, read-out: Maximum Effect (% survival)): 87%; dependence of uptake on phthalocyanine concentration [3]: not linearly dependent upon the phthalocyanine concentration; Uptake into V79 cells, composite value (asterisk) [3]: < 0.05 n Moles/10^6 cells/μM |
| C[Si](C)(CCCN=C=S)O[Si]1(O)n2c3c4ccccc4c2N=C2N=C(N=c4c5ccccc5c(n41)=NC1=NC(=N3)c3ccccc31)c1ccccc12 (stereo not shown) [Compound XXVI, HOSiPcOSi(CH3)2 (CH2)3 NCS] |  |  |  |  | Cell survival at highest light dose at 1 µM ([1]; Cricetulus griseus, V79, read-out: Maximum Effect (% survival)): 100% |
| CCCCN1CCN(CCC[Si](C)(C)O[Si]2(O)n3c4c5ccccc5c3N=C3N=C(N=c5c6ccccc6c(n52)=NC2=NC(=N4)c4ccccc42)c2ccccc23)CC1 (stereo not shown) [Compound XXXI, HOSiPCOSi(CH3)2 (CH2)3 NC4 H8 N(CH2)3 CH3] |  |  | 0.3 n Moles/10^6 cells/μM | 0.3 n Moles/10^6 cells/μM | Cell survival at highest light dose at 0.5 µM [1, 6]: 30%; Uptake into V79 cells ([3]; 2 μM): 0.61 ± 0.1 n Moles/10^6 cells |
| chloroaluminum phthalocyanine tetrasulfonate [AlPcTS, reference compound] |  |  |  |  | Doubling Time of Initial Tumor Volume after PDT [4]: 7 days |
